Experimental data taken from patent publication US20130288989A1, “NEW USE OF CHEMICAL INGREDIENTS IN CYNOMORIUM AS PHYTOESTROGEN” (TIANJIN UNIVERSITY OF TRADITIONAL CHINESE MEDICINE, priority 2010, published 2013).

Legend:
Assay type in all cases: cell-based
estrogen receptor = assay: Estrogen receptor activation test: overall estrogen activity and ERβ versus ERα comparison; conditions: for ERβ/ERα (both % of estradiol at 10^−8M): Hela cells; for estrogen activity / estrogen receptor activation (in words): estradiol as positive control
Description: (§1) Actually, estrogens show their biological activity by regulating estrogen responding genetic transcription.
(§2) Under condition of 37° C. and 5% CO2, Hela cells were cultured in phenol red-free high sugar DMEM culture medium containing 10% calf serum in incubator, the cells were spread in 60% density on 96-well plate when cell density was about 90%, each well was added with 150 ul of phenol red-free DMEM culture medium containing 10% serum, cultivation was performed overnight. To each well of the 96-well plate, 100 ul of serum-free DMEM culture medium and 0.4 μg plasmid (ptk-ERE-luc 2 μg, tk-Renila 1 μg, ERα or ERβ 1 μg) were used for transfection. After 6 h of transfection, each well was added with 150 ul of serum-free phenol red-free DMEM culture medium. Three wells were selected form each group, added with 10^−8M estradiol E2, and substance to be tested in different concentrations, 15 ul/well (sample 4-5 concentration gradient groups), continuously cultured under condition of 37° C., 5% CO2 for 24 h. After 24 h, each well was added with 80 μl of cell disruption solution, and the cells were subjected to freeze thawing once to be sufficiently disrupted. As for the cell lysis solution of each well, its activities to firefly luciferase and Renila luciferase were separately measured.

ERα = target: T1, ERα (Homo sapiens, UniProt P03372); assay: ERα luciferase reporter gene transcription activation in transfected Hela cells; conditions: for ERα (% of the control) mean ± S.D. / ERα (% of estradiol): Hela cells; for ERα (% of the control) mean ± S.D.: 24 h; for ERα (% of estradiol): estradiol at 10^−8M
T1 construct: expressed in transfected cells; host or cells: Hela cells (ER expression free)
T1 sequence (P03372 1-595): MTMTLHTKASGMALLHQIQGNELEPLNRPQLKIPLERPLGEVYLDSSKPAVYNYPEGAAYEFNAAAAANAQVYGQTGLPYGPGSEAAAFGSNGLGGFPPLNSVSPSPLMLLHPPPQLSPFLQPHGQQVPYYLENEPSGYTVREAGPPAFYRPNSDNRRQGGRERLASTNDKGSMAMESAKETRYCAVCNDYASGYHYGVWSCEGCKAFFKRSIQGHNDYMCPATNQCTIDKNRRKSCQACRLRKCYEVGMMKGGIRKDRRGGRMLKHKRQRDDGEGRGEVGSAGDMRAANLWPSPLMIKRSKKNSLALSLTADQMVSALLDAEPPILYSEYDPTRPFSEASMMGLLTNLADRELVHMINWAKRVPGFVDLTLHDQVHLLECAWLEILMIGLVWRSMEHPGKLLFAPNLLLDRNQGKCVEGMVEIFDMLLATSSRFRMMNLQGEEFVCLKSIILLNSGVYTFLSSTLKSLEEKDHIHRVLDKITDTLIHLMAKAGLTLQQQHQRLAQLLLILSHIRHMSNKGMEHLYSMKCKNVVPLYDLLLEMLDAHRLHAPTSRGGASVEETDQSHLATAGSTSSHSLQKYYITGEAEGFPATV
Source text: as §1
(§3) Formulation of sample solutions of catechin, (−)epicatechin-3-O-gallate, naringenin-4′-O-glucoside, phlorizin, emodin, chrysophanol (separately obtained from Example 1):
(§4) Catechin, (−)epicatechin-3-O-gallate, naringenin-4′-O-glucoside, phlorizin, emodin, chrysophanol in corresponding weights were separately weighed precisely, than added with DMSO for dissolution, the corresponding sample solution high dose groups (10 μM or 1 μM), were diluted in certain times to separately obtain low dose groups (1 μM to 0.001 μM).
as §2

ERβ = target: T2, ERβ (Homo sapiens, UniProt Q92731); assay: ERβ luciferase reporter gene transcription activation in transfected Hela cells; conditions: for ERβ (% of the control) mean ± S.D. / ERβ (% of estradiol): Hela cells; for ERβ (% of the control) mean ± S.D.: 24 h; for ERβ (% of estradiol): estradiol at 10^−8M
T2 construct: expressed in transfected cells; host or cells: Hela cells (ER expression free)
Source text: as §1, §3, §4, §2

T2 sequence (Q92731 whole entry): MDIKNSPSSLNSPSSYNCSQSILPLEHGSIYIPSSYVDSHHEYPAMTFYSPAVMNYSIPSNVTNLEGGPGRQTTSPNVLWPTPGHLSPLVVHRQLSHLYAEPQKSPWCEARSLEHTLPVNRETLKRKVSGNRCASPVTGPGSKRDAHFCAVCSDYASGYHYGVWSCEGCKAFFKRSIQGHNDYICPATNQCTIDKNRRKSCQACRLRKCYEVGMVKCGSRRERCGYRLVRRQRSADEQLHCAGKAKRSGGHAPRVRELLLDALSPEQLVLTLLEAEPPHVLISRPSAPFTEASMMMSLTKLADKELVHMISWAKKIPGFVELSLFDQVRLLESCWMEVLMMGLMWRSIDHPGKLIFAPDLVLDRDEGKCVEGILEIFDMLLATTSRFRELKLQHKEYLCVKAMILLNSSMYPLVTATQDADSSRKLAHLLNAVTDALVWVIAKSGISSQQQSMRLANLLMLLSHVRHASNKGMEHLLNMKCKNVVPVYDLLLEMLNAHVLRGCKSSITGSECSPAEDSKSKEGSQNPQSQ

SMILES	ERβ/ERα (both % of estradiol at 10^−8M) (estrogen receptor; sample 10^−6 M)	ERβ/ERα (both % of estradiol at 10^−8M) (estrogen receptor; sample 10^−7 M)	ERβ/ERα (both % of estradiol at 10^−8M) (estrogen receptor; sample 10^−8 M)	ERβ/ERα (both % of estradiol at 10^−8M) (estrogen receptor; sample 10^−9 M)	ERα (% of the control) mean ± S.D. (ERα; 10^−6 M)	ERα (% of estradiol) (ERα; 10^−6 M)	ERα (% of the control) mean ± S.D. (ERα; 10^−7 M)	ERα (% of estradiol) (ERα; 10^−7 M)	ERα (% of the control) mean ± S.D. (ERα; 10^−8 M)	ERα (% of estradiol) (ERα; 10^−8 M)	ERα (% of the control) mean ± S.D. (ERα; 10^−9 M)	ERα (% of estradiol) (ERα; 10^−9 M)	ERβ (% of the control) mean ± S.D. (ERβ; 10^−6 M)	ERβ (% of estradiol) (ERβ; 10^−6 M)	ERβ (% of the control) mean ± S.D. (ERβ; 10^−7 M)	ERβ (% of estradiol) (ERβ; 10^−7 M)	ERβ (% of the control) mean ± S.D. (ERβ; 10^−8 M)	ERβ (% of estradiol) (ERβ; 10^−8 M)	ERβ (% of the control) mean ± S.D. (ERβ; 10^−9 M)	ERβ (% of estradiol) (ERβ; 10^−9 M)	also measured
O=C(O[C@@H]1Cc2c(O)cc(O)cc2O[C@@H]1c1ccc(O)c(O)c1)c1cc(O)c(O)c(O)c1 [(−)Epicatechin-3-O-gallate, (−)epicatechin-3-O-gallate]	0.90	0.93	0.97	0.94	192.40 ± 27.72 % of the control	(90.43) % of estradiol	200.50 ± 13.72 % of the control	(94.24) % of estradiol	170.00 ± 13.87 % of the control	(79.90) % of estradiol	121.95 ± 10.76 % of the control	(57.32) % of estradiol	148.13 ± 4.22 % of the control	(81.56) % of estradiol	159.55 ± 28.00 % of the control	(87.84) % of estradiol	131.16 ± 15.95 % of the control	(77.72) % of estradiol	97.75 ± 17.66 % of the control	(53.82) % of estradiol	ERβ/ERα (both % of estradiol at 10^−8M) (estrogen receptor; sample 10^−5 M): 0.94; estrogen activity / estrogen receptor activation (in words) (estrogen receptor; listed as (−) epicatechin-3-O-gallate): show relevance to estrogen receptor activation; estrogen activity / estrogen receptor activation (in words) (estrogen receptor; listed as (−)epicatechin-3-O-gallate): potent activity of estrogen; selectivity to receptor subtypes (ERα vs ERβ) (estrogen receptor; result in words): a higher selectivity to ERα than ERβ; ERα (% of the control) mean ± S.D. (ERα; 10^−5 M): 171.88 ± 22.57 % of the control; ERα (% of estradiol) (ERα; 10^−5 M): (80.79) % of estradiol; concentration at which the transcriptional activity of ERα is agonized (ERα; luciferase reporter gene): 10^−8-10^−5 M; concentration of the highest ERα transcription activity (ERα; luciferase reporter gene): 10^−7 M; ERβ (% of the control) mean ± S.D. (ERβ; 10^−5 M): 137.80 ± 15.93 % of the control; ERβ (% of estradiol) (ERβ; 10^−5 M): (75.87) % of estradiol; concentration at which the transcriptional activity of ERβ is agonized (ERβ; luciferase reporter gene): 10^−8-10^−5 M; concentration of the highest ERβ transcription activity (ERβ; luciferase reporter gene): 10^−7 M
Cc1cc(O)c2c(c1)C(=O)c1cccc(O)c1C2=O [Chrysophanol, chrysophanol]	1.19	1.03	1.16	1.25	122.89 ± 8.94 % of the control	(51.51) % of estradiol	97.77 ± 8.47 % of the control	(40.98) % of estradiol	80.15 ± 13.88 % of the control	(33.59) % of estradiol	84.53 ± 14.21 % of the control	(35.43) % of estradiol	120.43 ± 12.98 % of the control	(61.26) % of estradiol	83.12 ± 4.78 % of the control	(42.28) % of estradiol	76.85 ± 8.82 % of the control	(39.09) % of estradiol	86.99 ± 23.16 % of the control	(44.25) % of estradiol	–
